Assay results published in patent US7514443B2, “Substituted pyrazolo[1,5-a]pyrimidines as inhibitors of metabotropic glutamate receptors” (Hoffmann-La Roche Inc., priority 2003, dated 2009).

How the values were obtained:
[1] = molecular target: T1, rat mGlu2 receptor (Rattus norvegicus, UniProt P31421); assay: [3H]-LY354740 binding on mGlu2 transfected CHO cell membranes; conditions: inhibition of 10 nM [3H]-LY354740 binding, membranes of mGlu2 transfected CHO cells, room temperature, 1 hour; read-out: mGluR2 Ki
T1 construct: expressed in transfected cells; membranes prepared from them
From the text: [^3H]-LY354740 Binding on mGlu2 Transfected CHO Cell Membranes
Transfection and cell culture: cDNA encoding the rat mGlu2 receptor protein in pBluescript II was subcloned into the eukaryotic expression vector pcDNA I-amp from Invitrogen (NV Leek, The Netherlands). This vector construct (pcD1mGR2) was co-transfected with a psvNeo plasmid encoding the gene for neomycin resistance, into CHO cells by a modified calcium phosphate method described by Chen & Okayama (1988). The cells were maintained in Dulbecco's Modified Eagle medium with reduced L-glutamine (2 mM final concentration) and 10% dialyzed foetal calf serum from Gibco BRL (Basel, Switzerland). Selection was made in the presence of G-418 (1000 μg/ml final). Clones were identified by reverse transcription of 5 μg total RNA, follow by PCR using mGlu2 receptor specific primers 5′-[…]-3′ (SEQ ID NO: 1) and 5′-[…]-3′ (SEQ ID NO:2) in 60 mM Tris HCl (pH 10), 15 mM (NH4)2SO4, 2 mM MgCl2, 25 units/ml Taq Polymerase with 30 cycles annealing at 60° C. for 1 min., extension at 72° C. for 30 s, and 1 min. 95° C. denaturation.
Membrane preparation: Cells, cultured as above, were harvested and washed three times with cold PBS and frozen at −80° C. The pellet was resuspended in cold 20 mM HEPES-NaOH buffer containing 10 mM EDTA (pH 7.4), and homogenized with a polytron (Kinematica, AG, Littau, Switzerland) for 10 s at 10 000 rpm. After centrifugation for 30 min. at 4° C., the pellet was washed once with the same buffer, and once with cold 20 mM HEPES-NaOH buffer containing 0.1 mM EDTA, (pH 7.4). Protein content was measured using the Pierce method (Socochim, Lausanne, Switzerland) using bovine serum albumin as standard.
[^3H]-LY354740 binding: After thawing, the membranes were resuspended in cold 50 mM Tris-HCl buffer containing 2 mM MgCl2 and 2 mM CaCl2, (pH 7) (binding buffer). The final concentration of the membranes in the assays was 25 μg protein/ml. Inhibition experiments were performed with membranes incubated with 10 nM [^3H]-LY354740 at room temperature, for 1 hour, in the presence of various concentrations of the compound to be tested. Following the incubations, membranes were filtered onto Whatmann GF/C glass fiber filters and washed 5 times with cold binding buffer. Non specific binding was measured in the presence of 10 μM DCG IV. After transfer of the filters into plastic vials containing 10 ml of Ultima-gold scintillation fluid (Packard, Zürich, Switzerland), the radioactivity was measured by liquid scintillation in a Tri-Carb 2500 TR counter (Packard, Zürich, Switzerland).
Data analysis: The inhibition curves were fitted with a four parameter logistic equation giving IC50 values, and Hill coefficients.

T1 sequence (P31421 19-872): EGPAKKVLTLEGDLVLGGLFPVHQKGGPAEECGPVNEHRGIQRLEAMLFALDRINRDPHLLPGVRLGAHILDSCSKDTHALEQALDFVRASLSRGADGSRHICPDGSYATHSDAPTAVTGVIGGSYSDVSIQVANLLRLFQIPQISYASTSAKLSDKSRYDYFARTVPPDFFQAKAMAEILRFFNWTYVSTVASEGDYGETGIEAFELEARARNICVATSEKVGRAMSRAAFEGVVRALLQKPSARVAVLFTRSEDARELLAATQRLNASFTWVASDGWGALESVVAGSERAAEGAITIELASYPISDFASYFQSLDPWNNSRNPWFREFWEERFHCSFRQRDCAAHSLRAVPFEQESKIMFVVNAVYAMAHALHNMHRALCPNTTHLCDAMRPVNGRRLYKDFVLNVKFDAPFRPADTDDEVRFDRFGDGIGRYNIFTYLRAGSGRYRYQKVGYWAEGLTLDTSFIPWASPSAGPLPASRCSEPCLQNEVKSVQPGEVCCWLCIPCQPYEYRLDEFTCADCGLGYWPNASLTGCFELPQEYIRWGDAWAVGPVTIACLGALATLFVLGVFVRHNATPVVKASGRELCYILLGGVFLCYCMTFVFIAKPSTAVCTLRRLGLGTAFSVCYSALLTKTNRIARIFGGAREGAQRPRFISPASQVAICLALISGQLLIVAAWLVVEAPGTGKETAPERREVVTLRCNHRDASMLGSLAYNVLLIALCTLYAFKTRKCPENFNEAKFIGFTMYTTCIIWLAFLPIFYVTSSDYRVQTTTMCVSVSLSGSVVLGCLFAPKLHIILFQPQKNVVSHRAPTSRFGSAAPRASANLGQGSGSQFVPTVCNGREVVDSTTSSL

## Cc1cc(-c2cnn3c(C(F)(F)F)cc(-c4ccc(C(F)(F)F)c(F)c4)nc23)ccn1 [Example 4.35, 5-(3-Fluoro-4-trifluoromethyl-phenyl)-3-(2-methyl-pyridin-4-yl)-7-trifluoromethyl-pyrazolo[1,5-a]pyrimidine]
[1]
  Ki: 45 nM
other
  melting point: 250 °C

## N#Cc1ncn2c(C(F)(F)F)cc(-c3ccc(Cl)c(Cl)c3)nc12 [Example 5.20, 5-(3,4-Dichloro-phenyl)-7-trifluoromethyl-imidazo[1,5-a]pyrimidine-8-carbonitrile]
[1]
  Ki: 43 nM
other
  melting point: 219 °C

## Cc1cc(-c2cnn3c(C(F)(F)F)cc(-c4cccc(C(F)(F)F)c4)nc23)cc(C)n1 [Example 4.24, 5-(3-Trifluoromethyl-phenyl)-3-(2,6-dimethyl-pyridin-4-yl)-7-trifluoromethyl-pyrazolo[1,5-a]pyrimidine]
[1]
  Ki: 43 nM
other
  melting point: 236 °C

## FC(F)(F)c1cc(-c2ccc(Cl)c(Cl)c2)nc2c(-c3cccnc3)cnn12 [Example 4.9, 5-(3,4-Dichloro-phenyl)-3-pyridin-3-yl-7-trifluoromethyl-pyrazolo[1,5-a]pyrimidine]
[1]
  Ki: 47 nM
other
  melting point: 224 °C

## N#Cc1c(-c2ccc(OCC(F)(F)F)c(C(F)(F)F)c2)nn2c(C(F)(F)F)ccnc12 [Example 1.19, 2-(4-Trifluoroethoxy-3-trifluoromethyl-phenyl)-4-trifluoromethyl-pyrazolo[1,5-a]pyrimidine-8-carbonitrile]
[1]
  Ki: 32 nM

## N#Cc1cnn2c(C(F)(F)F)cc(-c3ccc(F)c(C(F)(F)F)c3)nc12 [Example 1.13, 5-(4-Fluoro-3-trifluoromethyl-phenyl)-7-trifluoromethyl-pyrazolo[1,5-a]pyrimidine-3-carbonitrile]
[1]
  Ki: 43 nM
other
  melting point: 204 °C

## Cc1cc(-c2cc(C(F)(F)F)n3ncc(-c4cc[n+]([O-])c(C)c4)c3n2)ccc1Cl [Example 7.1, 5-(4-Chloro-3-methyl-phenyl)-3-(2-methyl-1-oxy-pyridin-4-yl)-7-trifluoromethyl-pyrazolo[1,5-a]pyrimidine]
[1]
  Ki: 43.9 nM

## FC(F)(F)COc1ccc(-c2cc(C(F)(F)F)n3ncc(-c4ccncc4)c3n2)cc1C(F)(F)F [Example 4.43, 5-[4-(2,2,2-Trifluorothoxy)-3-trifluoromethyl-phenyl]-3-pyridin-4-yl-7-trifluoromethyl-pyrazolo[1,5-a]pyrimidine]
[1]
  Ki: 48 nM
other
  melting point: 247 °C

## Cc1cc(-c2cc(C(F)(F)F)n3nc(CC#N)c(C#N)c3n2)ccc1Cl [Example 3.2, 5-(4-Chloro-3-methyl-phenyl)-2-cyanomethyl-7-trifluoromethyl-pyrazolo[1,5-a]pyrimidine-3-carbonitrile]
[1]
  Ki: 76 nM
other
  melting point: 238 °C

## Cc1nn2c(C(F)(F)F)cc(-c3cccc(C(F)(F)F)c3)nc2c1C#N [Example 2.2, 2-Methyl-5-(3-trifluoromethyl-phenyl)-7-trifluoromethyl-pyrazolo[1,5-a]pyrimidine-3-carbonitrile]
[1]
  Ki: 72 nM
other
  melting point: 215 °C

## CCOc1ccc(-c2cc(C(F)(F)F)n3ncc(-c4cccnc4)c3n2)cc1C(F)(F)F [Example 4.40, 5-(4-Ethoxy-3-trifluoromethyl-phenyl)-3-pyridin-3-yl-7-trifluoromethyl-pyrazolo[1,5-a]pyrimidine]
other
  melting point: 178 °C

## FC(F)(F)c1cc(-c2ccc(Br)cc2)nc2c(-c3ccncc3)cnn12 [Example 4.55, 5-(4-Bromo-phenyl)-3-pyridin-4-yl-7-trifluoromethyl-pyrazolo[1,5-a]pyrimidine]
other
  melting point: 289 °C
